Measured values from US10738040B2, “Compounds, compositions, and methods for increasing CFTR activity” (Proteostasis Therapeutics, Inc., priority 2014, dated 2020).
Marks after values point to notes of the source that are not given here.

What was measured:
ΔF508-CFTR [1] = target: T1, ΔF508-CFTR (Homo sapiens, UniProt P13569, DEL508-508); experiment: Ussing measurements (short-circuit current, CFTRinh-172-inhibitable); format: cell-based; conditions: compound at 10 uM and VX-809 at 3 uM, relative to VX-809 (3 uM); hBEs homozygous for ΔF508, 24 hours treatment; CFTRinh-172-inhibitable current
T1 construct: Primary lung epithelial cells homozygous for the Cystic Fibrosis-causing ΔF508 mutation were differentiated; endogenous in cells; host or cells: primary human lung (bronchial) epithelial cells homozygous for ΔF508, differentiated at air-liquid interface
T1 sequence (P13569 with tags, fused parts or gaps DEL508-508): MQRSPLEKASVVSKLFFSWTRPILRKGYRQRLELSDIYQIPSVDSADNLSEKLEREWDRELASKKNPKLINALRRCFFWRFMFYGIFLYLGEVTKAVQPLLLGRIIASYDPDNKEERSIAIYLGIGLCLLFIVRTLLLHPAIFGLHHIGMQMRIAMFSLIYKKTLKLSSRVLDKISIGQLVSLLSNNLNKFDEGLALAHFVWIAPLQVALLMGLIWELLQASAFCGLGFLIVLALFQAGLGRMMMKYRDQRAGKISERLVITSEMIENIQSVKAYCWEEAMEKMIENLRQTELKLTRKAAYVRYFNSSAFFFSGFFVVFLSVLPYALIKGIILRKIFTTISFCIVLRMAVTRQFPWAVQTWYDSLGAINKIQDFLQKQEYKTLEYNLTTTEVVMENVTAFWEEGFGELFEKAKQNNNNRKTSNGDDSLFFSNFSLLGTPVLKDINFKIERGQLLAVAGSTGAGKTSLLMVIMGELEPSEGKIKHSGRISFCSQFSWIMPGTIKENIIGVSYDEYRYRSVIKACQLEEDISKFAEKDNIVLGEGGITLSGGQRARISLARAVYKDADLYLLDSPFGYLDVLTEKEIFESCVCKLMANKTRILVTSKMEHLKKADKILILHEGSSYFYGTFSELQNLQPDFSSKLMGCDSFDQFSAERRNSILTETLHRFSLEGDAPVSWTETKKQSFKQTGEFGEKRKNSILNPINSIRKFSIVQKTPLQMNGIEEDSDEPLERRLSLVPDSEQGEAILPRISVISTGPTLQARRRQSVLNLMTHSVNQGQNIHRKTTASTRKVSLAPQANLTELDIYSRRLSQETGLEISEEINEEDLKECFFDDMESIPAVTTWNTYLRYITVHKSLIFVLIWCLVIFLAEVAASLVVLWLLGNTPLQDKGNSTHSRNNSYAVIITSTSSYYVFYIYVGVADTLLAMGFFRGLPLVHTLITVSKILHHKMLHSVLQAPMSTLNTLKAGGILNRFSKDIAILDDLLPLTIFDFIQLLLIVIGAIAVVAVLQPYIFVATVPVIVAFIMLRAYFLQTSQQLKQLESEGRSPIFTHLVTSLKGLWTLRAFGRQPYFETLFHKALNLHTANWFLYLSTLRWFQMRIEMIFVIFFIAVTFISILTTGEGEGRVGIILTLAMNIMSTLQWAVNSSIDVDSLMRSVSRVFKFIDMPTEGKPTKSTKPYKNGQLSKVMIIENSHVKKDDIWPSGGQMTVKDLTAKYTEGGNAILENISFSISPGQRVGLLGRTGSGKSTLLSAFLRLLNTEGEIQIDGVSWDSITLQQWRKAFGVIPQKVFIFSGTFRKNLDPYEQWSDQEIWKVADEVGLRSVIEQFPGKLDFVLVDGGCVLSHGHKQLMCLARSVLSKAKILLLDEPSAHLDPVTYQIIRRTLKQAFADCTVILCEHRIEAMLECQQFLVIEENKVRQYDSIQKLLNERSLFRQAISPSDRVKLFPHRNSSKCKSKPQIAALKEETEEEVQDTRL
Protocol: As discussed above, Ussing measurements can be used to measure CFTR activity. In this method, primary lung epithelial cells (hBEs) homozygous for the Cystic Fibrosis-causing ΔF508 mutation were differentiated for a minimum of 4 weeks in an air-liquid interface on SnapWell filter plates prior to the Ussing measurements. Cells were apically mucus-washed for 30 minutes prior to treatment with compounds. The basolateral media was removed and replaced with media containing the compound of interest diluted to its final concentration from DMSO stocks. Treated cells were incubated at 37° C. and 5% CO2 for 24 hours. At the end of the treatment period, the cells on filters were transferred to the Ussing chamber and equilibrated for 30 minutes. The short-circuit current was measured in voltage clamp-mode (Vhold=0 mV), and the entire assay was conducted at a temperature of 36° C.-36.5° C. Once the voltages stabilized, the chambers were clamped, and data was recorded by pulse readings every 5 seconds. Following baseline current stabilization, the following additions were applied and the changes in current and resistance of the cells was monitored: • 1. Benzamil to the apical chamber to inhibit ENaC sodium channel. • 2. Forskolin to both chambers to activate ΔF508-CFTR by phosphorylation. • 3. Genistein to both chambers to potentiate ΔF508-CFTR channel opening. • 4. CFTRinh-172 to the apical chamber to inhibit ΔF508-CFTR Cl— conductance. The inhibitable current (that current that is blocked by CFTRinh-172) is measured as the specific activity of the ΔF508-CFTR channel, and increases in response to compound in this activity over that observed in vehicle-treated samples are identified as the correction of ΔF508-CFTR function imparted by the compound tested.

ΔF508-CFTR [2] = target: T1, ΔF508-CFTR; experiment: hBE equivalent current (Ieq) assay; format: cell-based; conditions: compound at 10 uM and VX-809 at 1 uM, relative to VX-809 (1 uM); primary lung epithelial cells homozygous for ΔF508, 24 hours treatment; AUC of equivalent chloride current
Protocol: ii. hBE Equivalent Current (Ieq) Assay
Primary lung epithelial cells homozygous for the Cystic Fibrosis-causing ΔF508 mutation were differentiated for a minimum of 4 weeks in an air-liquid interface on Costar 24 well HTS filter plates prior to the equivalent current (Ieq) measurements. Cells were apically mucus-washed for 30 minutes 24 h prior to treatment with compounds. The basolateral media was removed and replaced with media containing the compound of interest diluted to its final concentration from DMSO stocks. Treated cells were incubated at 37° C. and 5% CO2 for 24 hours. At the end of the treatment period, the media was changed to the Ieq experimental solution for 30 minutes before the experiment and plates are maintained in a CO2-free incubator during this period. The plates containing the cells were then placed in pre-warmed heating blocks at 36° ° C.±0.5 for 15 minutes before measurements are taken. The transepithelial voltage (VT) and conductance (GT) were measured using a custom 24 channel current clamp (TECC-24) with 24 well electrode manifold. The Ieq assay measurements were made following additions with standardized time periods: • 1. The baseline VT and GT values were measured for approximately 20 minutes. • 2. Benzamil was added to block ENaC for 15 minutes. • 3. Forskolin plus VX-770 (ivacaftor) were added to maximally activate ΔF508-CFTR for 27 minutes. • 4. Bumetanide was added to inhibit the NaK2Cl cotransporter and shut-off secretion of chloride.
The activity data captured was the area under the curve (AUC) for the traces of the equivalent chloride current. The AUC was collected from the time of the forskolin/VX-770 addition until the inhibition by bumetanide addition. Correction in response to compound treatment was scored as the increase in the AUC for compound-treated samples over that of vehicle-treated samples.

Row | SMILES | Ussing (% VX-809) (ΔF508-CFTR [1]) | Ieq (% VX-809) (ΔF508-CFTR [2])
1 | C[C@@H](O)c1cnnn1[C@H]1C[C@H](NC(=O)c2cc(-c3ccccc3)on2)C1 | ## (activity ≥200% of VX-809 (3 uM) with compound at 10 uM and VX-809 at 3 uM) | ** (activity ≥200% of VX-809 (1 uM) with compound at 10 uM and VX-809 at 1 uM)
2 | O=C(N[C@H]1C[C@H](n2cc(CO)nn2)C1)c1cc(-c2ccccc2)on1 | ## (activity ≥200% of VX-809 (3 uM) with compound at 10 uM and VX-809 at 3 uM) | ++ *
3 | O=C(N[C@H]1C[C@@H](n2nncc2CO)C1)c1cc(-c2ccccc2)on1 | ## (activity ≥200% of VX-809 (3 uM) with compound at 10 uM and VX-809 at 3 uM) | ** (activity ≥200% of VX-809 (1 uM) with compound at 10 uM and VX-809 at 1 uM)
4 | C[C@@H](O)c1cnnn1[C@H]1C[C@@H](NC(=O)c2cc(-c3ccccc3)on2)C1 | ## (activity ≥200% of VX-809 (3 uM) with compound at 10 uM and VX-809 at 3 uM) | 
5 | O=C(N[C@H]1C[C@@H](n2cc(CO)nn2)C1)c1cc(-c2ccccc2)on1 | ## (activity ≥200% of VX-809 (3 uM) with compound at 10 uM and VX-809 at 3 uM) | ** (activity ≥200% of VX-809 (1 uM) with compound at 10 uM and VX-809 at 1 uM)
6 | C[C@@H](O)c1cn([C@H]2C[C@@H](NC(=O)c3cc(-c4ccccc4)on3)C2)nn1 | ## (activity ≥200% of VX-809 (3 uM) with compound at 10 uM and VX-809 at 3 uM) | 
7 | O=C(N[C@H]1C[C@H](Cc2nnc(CO)s2)C1)c1cc(-c2ccccc2)on1 | ## (activity ≥200% of VX-809 (3 uM) with compound at 10 uM and VX-809 at 3 uM) | 
8 | C[C@H](O)c1nnc(C[C@H]2C[C@H](NC(=O)c3cc(-c4ccccc4)on3)C2)s1 | ## (activity ≥200% of VX-809 (3 uM) with compound at 10 uM and VX-809 at 3 uM) | ** (activity ≥200% of VX-809 (1 uM) with compound at 10 uM and VX-809 at 1 uM)
9 | C[C@@H](O)c1nnc(C[C@H]2C[C@H](NC(=O)c3cc(-c4ccccc4)on3)C2)s1 | ## (activity ≥200% of VX-809 (3 uM) with compound at 10 uM and VX-809 at 3 uM) | ** (activity ≥200% of VX-809 (1 uM) with compound at 10 uM and VX-809 at 1 uM)
10 | O=C(N[C@H]1C[C@@H](c2nnc(CO)s2)C1)c1cc(-c2ccccc2)on1 | ## (activity ≥200% of VX-809 (3 uM) with compound at 10 uM and VX-809 at 3 uM) | 
11 | C[C@@H](O)c1nnc([C@H]2C[C@@H](NC(=O)c3cc(-c4ccccc4)on3)C2)s1 | ## (activity ≥200% of VX-809 (3 uM) with compound at 10 uM and VX-809 at 3 uM) | ** (activity ≥200% of VX-809 (1 uM) with compound at 10 uM and VX-809 at 1 uM)
12 | C[C@H](O)c1nnc([C@H]2C[C@@H](NC(=O)c3cc(-c4ccccc4)on3)C2)s1 | ## (activity ≥200% of VX-809 (3 uM) with compound at 10 uM and VX-809 at 3 uM) | ** (activity ≥200% of VX-809 (1 uM) with compound at 10 uM and VX-809 at 1 uM)
13 | O=C(N[C@H]1C[C@H](c2nnc(CO)s2)C1)c1cc(-c2ccccc2)on1 | ## (activity ≥200% of VX-809 (3 uM) with compound at 10 uM and VX-809 at 3 uM) | ** (activity ≥200% of VX-809 (1 uM) with compound at 10 uM and VX-809 at 1 uM)
14 | C[C@H](O)c1nnc([C@H]2C[C@H](NC(=O)c3cc(-c4ccccc4)on3)C2)s1 | ## (activity ≥200% of VX-809 (3 uM) with compound at 10 uM and VX-809 at 3 uM) | ** (activity ≥200% of VX-809 (1 uM) with compound at 10 uM and VX-809 at 1 uM)
15 | C[C@@H](O)c1nnc([C@H]2C[C@H](NC(=O)c3cc(-c4ccccc4)on3)C2)s1 | ## (activity ≥200% of VX-809 (3 uM) with compound at 10 uM and VX-809 at 3 uM) | ** (activity ≥200% of VX-809 (1 uM) with compound at 10 uM and VX-809 at 1 uM)
16 | O=C(NC1CC(c2nnc(CO)o2)C1)c1cc(-c2ccccc2)on1 (stereo not shown) | ## (activity ≥200% of VX-809 (3 uM) with compound at 10 uM and VX-809 at 3 uM) | 
17 | C[C@@H](O)c1nnc(C2CC(NC(=O)c3cc(-c4ccccc4)on3)C2)o1 (stereo partly shown) | ## (activity ≥200% of VX-809 (3 uM) with compound at 10 uM and VX-809 at 3 uM) | ** (activity ≥200% of VX-809 (1 uM) with compound at 10 uM and VX-809 at 1 uM)

Row | SMILES | Ussing (% VX-809) (ΔF508-CFTR [1]) | Ieq (% VX-809) (ΔF508-CFTR [2])
18 | CCCCNC(=O)OCc1cn([C@H]2C[C@H](NC(=O)c3cc(-c4ccccc4)on3)C2)nn1 | ## (activity ≥200% of VX-809 (3 uM) with compound at 10 uM and VX-809 at 3 uM) | 
19 | O=C(NC1CC(c2nc(CO)no2)C1)c1cc(-c2ccccc2)on1 (stereo not shown) | ## (activity ≥200% of VX-809 (3 uM) with compound at 10 uM and VX-809 at 3 uM) | ** (activity ≥200% of VX-809 (1 uM) with compound at 10 uM and VX-809 at 1 uM)
20 | O=C(N[C@H]1C[C@@H](c2noc(CO)n2)C1)c1cc(-c2ccccc2)on1 | ## (activity ≥200% of VX-809 (3 uM) with compound at 10 uM and VX-809 at 3 uM) | ** (activity ≥200% of VX-809 (1 uM) with compound at 10 uM and VX-809 at 1 uM)
21 | O=C(N[C@H]1C[C@H](c2noc(CO)n2)C1)c1cc(-c2ccccc2)on1 | ## (activity ≥200% of VX-809 (3 uM) with compound at 10 uM and VX-809 at 3 uM) | ** (activity ≥200% of VX-809 (1 uM) with compound at 10 uM and VX-809 at 1 uM)
22 | C[C@@H](O)c1nnc(C[C@H]2C[C@H](NC(=O)c3cc(-c4ccccc4)on3)C2)o1 | ## (activity ≥200% of VX-809 (3 uM) with compound at 10 uM and VX-809 at 3 uM) | ** (activity ≥200% of VX-809 (1 uM) with compound at 10 uM and VX-809 at 1 uM)
23 | CO[C@H](C)c1nnc([C@H]2C[C@@H](NC(=O)c3cc(-c4ccccc4)on3)C2)o1 | ## (activity ≥200% of VX-809 (3 uM) with compound at 10 uM and VX-809 at 3 uM) | * (activity 100-200% of VX-809 (1 uM) with compound at 10 uM and VX-809 at 1 uM)
24 | C[C@H](c1nnc([C@H]2C[C@H](NC(=O)c3cc(-c4ccccc4)on3)C2)o1)S(C)(=O)=O | ## (activity ≥200% of VX-809 (3 uM) with compound at 10 uM and VX-809 at 3 uM) | * (activity 100-200% of VX-809 (1 uM) with compound at 10 uM and VX-809 at 1 uM)
25 | CC(C)O[C@H](C)c1nnc([C@H]2C[C@H](NC(=O)c3cc(-c4ccccc4)on3)C2)o1 | ## (activity ≥200% of VX-809 (3 uM) with compound at 10 uM and VX-809 at 3 uM) | 
26 | CN1CC(c2nnc([C@H]3C[C@H](NC(=O)c4cc(-c5ccccc5)on4)C3)o2)C1 | ## (activity ≥200% of VX-809 (3 uM) with compound at 10 uM and VX-809 at 3 uM) | 
27 | O=C(N[C@H]1C[C@H](c2nnc(C3COC3)o2)C1)c1cc(-c2ccccc2)on1 | ## (activity ≥200% of VX-809 (3 uM) with compound at 10 uM and VX-809 at 3 uM) | 
28 | O=C(N[C@H]1C[C@H](c2nnc(C3CS(=O)(=O)C3)o2)C1)c1cc(-c2ccccc2)on1 | ## (activity ≥200% of VX-809 (3 uM) with compound at 10 uM and VX-809 at 3 uM) | 
29 | O=C(N[C@H]1C[C@H](n2ccnc2)C1)c1cc(-c2ccccc2)on1 | # (activity 100-200% of VX-809 (3 uM) with compound at 10 uM and VX-809 at 3 uM) | 
30 | O=C(NC1CCC(n2nncc2CO)C1)c1cc(-c2ccccc2)on1 (stereo not shown) | ## (activity ≥200% of VX-809 (3 uM) with compound at 10 uM and VX-809 at 3 uM) | 
31 | O=C(NC1CCC(n2cc(CO)nn2)C1)c1cc(-c2ccccc2)on1 (stereo not shown) | # (activity 100-200% of VX-809 (3 uM) with compound at 10 uM and VX-809 at 3 uM) | 
32 | O=C(NC1CCC(c2nnc(CO)o2)C1)c1cc(-c2ccccc2)on1 (stereo not shown) | # (activity 100-200% of VX-809 (3 uM) with compound at 10 uM and VX-809 at 3 uM) | 
33 | O=C(NC1CCC(n2nncc2CO)CC1)c1cc(-c2ccccc2)on1 (stereo not shown) | # (activity 100-200% of VX-809 (3 uM) with compound at 10 uM and VX-809 at 3 uM) | 
34 | O=C(NC1CCC(n2cc(CO)nn2)CC1)c1cc(-c2ccccc2)on1 (stereo not shown) | # (activity 100-200% of VX-809 (3 uM) with compound at 10 uM and VX-809 at 3 uM) | 
